From ChEMBL document CHEMBL5614431, “Discovery of 1,3,4-oxadiazoles with slow-action activity against Plasmodium falciparum malaria parasites” (Eur J Med Chem, 2024)
The source made the active and inactive calls. No cut-off for these calls is given here.

Tests used:
[1] = tested on: Plasmodium falciparum; assay: Antimalarial activity against synchronous ring stage Plasmodium falciparum 3D7 infected in human Erythrocyte assessed as inhibition of parasite growth incubated for 48 hrs by [3H]-hypoxanthine incorporation assay; format: functional, organism-based; details: 3D7, Erythrocyte
[2] = Cytotoxicity against human NFF cells assessed as reduction in cell viability incubated for 72 hrs by SRB assay; format: toxicity, cell-based
[3] = Plasma concentration in female BALB/c mouse at 100 mg/kg, po measured after 7.5 hrs; format: ADME, organism-based; details: in vivo, BLD = below limit of detection
[4] = Chemical stability of the compound in aqueous buffer/THF assessed as degradation measured over 24 hrs; format: physicochemical
[5] = tested on: Plasmodium falciparum; assay: Resistance index, ratio of IC50 for antimalarial activity against multidrug-resistant synchronous ring stage Plasmodium falciparum Dd2 infected in human Erythrocyte assessed as inhibition of parasite growth incubated for 96 hrs by [3H]-hypoxanthine incorporation assay to IC50 for antimalarial activity against synchronous ring stage Plasmodium falciparum 3D7 infected in human Erythrocyte assessed …; format: toxicity, organism-based
[6] = tested on: Plasmodium berghei; assay: Antimalarial activity against Plasmodium berghei ANKA infected in female BALB/c mouse model assessed as reduction in parasitemia at 100 mg/kg, po bid pre-infected for 2 hrs followed by compound addition and measured after 3 days by microscopic analysis; format: functional, organism-based; details: time 3.0 day
[7] = tested on: Plasmodium falciparum; assay: Antimalarial activity against synchronous ring stage Plasmodium falciparum 3D7 infected in human Erythrocyte assessed as inhibition of parasite growth incubated for 96 hrs supplemented with IPP by [3H]-hypoxanthine incorporation assay; format: functional, organism-based; details: 3D7, Erythrocyte
[8] = tested on: Plasmodium falciparum; assay: Antimalarial activity against multidrug-resistant synchronous ring stage Plasmodium falciparum Dd2 infected in human Erythrocyte assessed as inhibition of parasite growth incubated for 48 hrs by [3H]-hypoxanthine incorporation assay; format: functional, organism-based
[9] = Toxicity in female BALB/c mouse assessed as adverse clinical effect at 116 mg/kg, po via gavage administered twice for 3 days; format: organism-based; details: in vivo, 72 h, time 3 day
[10] = Selectivity ratio of IC50 for antimalarial activity against synchronous ring stage Plasmodium falciparum 3D7 infected in human Erythrocyte assessed as inhibition of parasite growth incubated for 96 hrs supplemented with IPP by [3H]-hypoxanthine incorporation assay to IC50 for antimalarial activity against synchronous ring stage Plasmodium falciparum 3D7 infected in human Erythrocyte assessed as …; format: functional
[11] = Toxicity in female BALB/c mouse assessed as effect on kidney at 116 mg/kg, po via gavage administered once daily for 3 days; format: organism-based; details: in vivo, 72 h, time 3 day
[12] = Selectivity ratio of IC50 for antimalarial activity against multidrug-resistant synchronous ring stage Plasmodium falciparum Dd2 infected in human Erythrocyte assessed as inhibition of parasite growth incubated for 48 hrs by [3H]-hypoxanthine incorporation assay to IC50 for antimalarial activity against multidrug-resistant synchronous ring stage Plasmodium falciparum Dd2 infected in human …; format: functional
[13] = tested on: Plasmodium berghei; assay: Antimalarial activity against Plasmodium berghei ANKA infected in female BALB/c mouse model assessed as reduction in parasitemia at 100 mg/kg, po qd pre-infected for 2 hrs followed by compound addition and measured after 3 days by microscopic analysis; format: functional, organism-based; details: time 3.0 day
[14] = Selectivity index, ratio of IC50 for cytotoxicity against human NFF cells to IC50 for antimalarial activity against synchronous ring stage Plasmodium falciparum 3D7 infected in human Erythrocyte assessed as inhibition of parasite growth incubated for 96 hrs; format: toxicity, cell-based; details: read-out: Ratio IC50
[15] = tested on: Plasmodium falciparum; assay: Antimalarial activity against multidrug-resistant synchronous ring stage Plasmodium falciparum Dd2 infected in human Erythrocyte assessed as inhibition of parasite growth incubated for 96 hrs by [3H]-hypoxanthine incorporation assay; format: functional, organism-based
[16] = Selectivity ratio of IC50 for antimalarial activity against synchronous ring stage Plasmodium falciparum 3D7 infected in human Erythrocyte assessed as inhibition of parasite growth incubated for 48 hrs by [3H]-hypoxanthine incorporation assay to IC50 for antimalarial activity against synchronous ring stage Plasmodium falciparum 3D7 infected in human Erythrocyte assessed as inhibition of parasite growth incubated for 48 hrs by [3H]-hypoxanthine incorporation assay; format: functional
[17] = Toxicity in female BALB/c mouse assessed as appearance of ruffled coats in animal at 116 mg/kg, po via gavage administered twice daily for 3 days; format: organism-based; details: in vivo, 72 h, time 3 day
[18] = Toxicity in female BALB/c mouse assessed as effect on liver at 116 mg/kg, po via gavage administered twice daily for 3 days; format: organism-based; details: in vivo, 72 h, time 3 day
[19] = Tmax in non fasted female BALB/c mouse at 100 mg/kg, po via gavage and measured upto 24 hrs by LC-MS analysis; format: ADME, organism-based; details: in vivo
[20] = Chemical stability of the compound in 1:1 mixture of 6M aqueous hydrochloric acid/THF assessed as degradation measured over 20 hrs; format: physicochemical; details: buffer
[21] = AUC (0 to t) in non fasted female BALB/c mouse plasma at 100 mg/kg, po via gavage and measured after 7.5 hrs by LC-MS analysis; format: ADME, organism-based
[22] = tested on: Plasmodium falciparum; assay: Antimalarial activity against synchronous ring stage Plasmodium falciparum 3D7 infected in human Erythrocyte assessed as inhibition of parasite growth incubated for 96 hrs by [3H]-hypoxanthine incorporation assay; format: functional, organism-based; details: 3D7, Erythrocyte
[23] = Toxicity in female BALB/c mouse assessed as appearance of ruffled coats in animal at 116 mg/kg, po via gavage administered once daily for 3 days; format: organism-based; details: in vivo, 72 h, time 3 day
[24] = Cmax in non fasted female BALB/c mouse plasma at 100 mg/kg, po via gavage and measured upto 24 hrs by LC-MS analysis; format: ADME, organism-based
[25] = Metabolic stability in human liver microsomes assessed as half life; format: ADME, Microsome
[26] = Toxicity in female BALB/c mouse assessed as adverse clinical effect at 116 mg/kg, po via gavage administered once for 3 days; format: organism-based; details: in vivo, 72 h, time 3 day
[27] = Toxicity in female BALB/c mouse assessed as effect on kidney at 116 mg/kg, po via gavage administered twice daily for 3 days; format: organism-based; details: in vivo, 72 h, time 3 day
[28] = Apparent permeability of the compound in human Caco-2 cells across apical to basolateral side; format: ADME, cell-based
[29] = Metabolic stability in mouse liver microsomes assessed as half life; format: ADME, Microsome
[30] = Toxicity in female BALB/c mouse assessed as effect on liver at 116 mg/kg, po via gavage administered once daily for 3 days; format: organism-based; details: in vivo, 72 h, time 3 day
[31] = Apparent half life in non fasted female BALB/c mouse at 100 mg/kg, po via gavage and measured upto 24 hrs by LC-MS analysis; format: ADME, organism-based; details: in vivo, read-out: t1/2(app) (converted)
[32] = AUC (0 to infinity) in non fasted female BALB/c mouse at 100 mg/kg, po via gavage and measured upto 24 hrs by LC-MS analysis; format: ADME, organism-based; details: in vivo
[33] = tested on: Plasmodium berghei; assay: Antimalarial activity against Plasmodium berghei ANKA infected in female BALB/c mouse model assessed as reduction in parasitemia at 10 mg/kg, po qd pre-infected for 2 hrs followed by compound addition and measured after 3 days by microscopic analysis; format: functional, organism-based; details: time 3.0 day
[34] = AUC (0 to t) in non fasted female BALB/c mouse plasma at 100 mg/kg, po via gavage and measured after 4 hrs by LC-MS analysis; format: ADME, organism-based

Row | SMILES | IC50 [1] [µM] | IC50 at 72 h [2] [µM] | IC50 [7] [µM] | Ratio IC50 [10] | selectivity ratio at 96 h [14] | Ratio IC50 [16] | Tmax [19] [min] | IC50 [22] [µM] | Cmax [24] [nM] | half-life [25] [min] | half-life [29] [min] | other results
1 | O=S(=O)(c1nnc(N2CCOCC2)o1)C1CCCCC1 | > 50 | > 100 | 1.79 | 3 | > 182 | >91 | 15 | 0.55 | 7610 | > 255 | 99 | Cp [3]: Bld; Stability [4]: Stable; Ratio IC50 [5]: 1; Activity [6]: Active; IC50 [8]: > 25 µM; Activity [9]: Non-Toxic; Activity [11]: Non-Toxic; Ratio IC50 [12]: >50; Activity [13]: Active; IC50 [15]: 0.5 µM; Activity [17]: Toxic; Activity [18]: Non-Toxic; Stability [20]: Unstable; AUC(0-t) at 7.5 h [21]: 11.5 µM·h; Activity [23]: Toxic; Activity [26]: Non-Toxic; Activity [27]: Non-Toxic; Papp A→B [28]: 86 ×10⁻⁶ cm/s; Activity [30]: Non-Toxic
2 | CCC[C@@H]1C[C@@H](C(=O)N[C@@H]([C@H]2O[C@H](SC)[C@H](O)[C@@H](O)[C@H]2O)[C@H](C)Cl)N(C)C1 [CLINDAMYCIN] | – | – | > 25 | 3571 | – | – | – | – | – | – | – | –
3 | O=S(=O)(c1nnc(N2CCOCC2)o1)C1CCCCCC1 | > 25 | > 100 | – | – | > 769 | >137 | 15 | 0.18 | 650 | – | – | AUC(0-t) at 7.5 h [21]: 1.16 µM·h
4 | C[C@@H]1CCC[C@H](C)N1c1nnc(S(=O)(=O)C2CCCCC2)o1 | > 12.5 | > 100 | – | – | > 1670 | >165 | 30 | 0.08 | 310 | – | – | half-life [31]: 96 min; Stability [20]: Stable; AUC(0-t) at 7.5 h [21]: 0.39 µM·h; AUC(0-inf) [32]: 0.41 µM·h
5 | O=S(=O)(c1nnc(N2CCCCCC2)o1)C1CCCCC1 | > 10 | > 100 | – | – | > 1150 | >114 | – | 0.09 | – | 68 | 7 | –
6 | O=S(=O)(c1nnc(N2CCC3(CC2)COC3)o1)C1CCCCC1 | > 10 | > 100 | – | – | > 1020 | >102 | – | 0.1 | – | 112 | 18 | Papp A→B [28]: 44 ×10⁻⁶ cm/s
7 | CCN(CC)CCCC(C)Nc1ccnc2cc(Cl)ccc12 (stereo not given) [CHLOROQUINE] | – | 36.7 | – | – | – | – | – | – | – | – | – | Activity [33]: Active
8 | Cc1ccc(C)c(CS(=O)(=O)c2nnc(N3CCOCC3)o2)c1 | 12.4 | 20.4 | 0.84 | 1 | 24 | 15 | – | 0.84 | – | 5 | 3 | Ratio IC50 [5]: 0.7; IC50 [8]: 13 µM; Ratio IC50 [12]: 23; IC50 [15]: 0.57 µM; Papp A→B [28]: 39 ×10⁻⁶ cm/s
9 | O=S(=O)(CC1CCC1)c1nnc(N2CCOCC2)o1 | > 10 | > 100 | – | – | > 186 | >19 | 15 | 0.53 | 2140 | – | – | AUC(0-t) at 4 h [34]: 3.61 µM·h; half-life [31]: 57 min; AUC(0-inf) [32]: 3.91 µM·h
10 | CC1CCN(c2nnc(S(=O)(=O)Cc3ccc(Cl)c(Cl)c3)o2)CC1 | 11.5 | 26 | 0.2 | 1 | 162 | 72 | – | 0.16 | – | 3 | < 2 | Ratio IC50 [5]: 0.4; IC50 [8]: 10.1 µM; Ratio IC50 [12]: 145; IC50 [15]: 0.07 µM
11 | O=S(=O)(CC1CCCC1)c1nnc(N2CCOCC2)o1 | > 10 | > 100 | – | – | > 158 | >16 | – | 0.64 | – | – | – | –
